Measured values taken from patent US20210244735A1, “COMPOSITIONS AND METHODS FOR TREATING MYELOFIBROSIS” (Impact Biomedicines, Inc., priority 2010, published 2021).
Entries after “also recorded” stand apart in the source; their conditions may differ. Where a name gives a salt, the structure may show the parent alone.

Experiments:
Format in all cases: in vivo, human
[1] = Phase 1 study: plasma pharmacokinetics, non-compartmental analysis
Protocol: Pharmacokinetics: The concentration—time curves of TG101348 in plasma were evaluated by a non-compartmental analysis (with the use of WinNonlin® software, version 5.2).

subjects with MF = test: Phase 1 dose-escalation study MF-TG101348-001 (and extension MF-TG101348-002): clinical response (spleen, leukocytosis, thrombocytosis, constitutional symptoms, bone marrow); settings: for subjects achieving a normal WBC count: following 6 cycles; for subjects achieving a normal platelet count: after 6 cycles; for subjects with minimum 25% decrease in palpable spleen size: intent-to-treat
Protocol: The key eligibility criteria for subjects included: Myelofibrosis (PMF or post-PV/ET MF); High-risk or intermediate-risk with symptomatic splenomegaly/unresponsive to available therapy; ECOG performance status ≤2; ANC≥1×10^9/L; Platelet count≥50×10^9/L; Serum creatinine ≤2 mg/dL; Total bilirubin ≤2 mg/dL; AST/ALT≤3X upper limit of normal.
All patients provided written informed consent.
Responses were measured every 4 weeks per International Working Group for MPN Research and Treatment (IWG-MRT) criteria (Tefferi A et al., Blood 108:1497-1503, 2006). Assessment of bone marrow histology was performed at baseline and every 24 weeks of therapy. Changes in JAK2V 617F allele burden in the granulocyte fraction of peripheral blood were measured as previously described (Kittur J et al., Cancer 109:2279-2284, 2007); the assessments were at baseline and every 4 weeks during the first 6 cycles, and every 6th cycle of therapy in the extension study.

[2] = tested on: IL-6, IL-8, IL-2 and TNF-α; test: Phase 1 study: cytokine assessment by multiplexed sandwich ELISAs; settings: relative to baseline during treatment; dihydrochloride monohydrate
Protocol: Cytokine Assessment: Samples for cytokine measurement were collected at baseline and every 4 weeks thereafter. Cytokine levels were measured using multiplexed sandwich ELISAs (Millipore, St. Charles, Mo.).

[3] = mean, 240 mg/day (n=3), Cycle 1 Day 28
[4] = mean, 360 mg/day (n=3), Cycle 1 Day 28
[5] = mean, 800 mg/day (n=5), Cycle 1 Day 28
[6] = MTD cohort, after 1 cycle (n=12)
[7] = MTD cohort, after 1 cycle, 8 subjects at baseline
[8] = MTD cohort, after 6 cycles (n=16)
[9] = at 3 months, 33 patients who started at >680 mg and completed at least 3 cycles

## Cc1cnc(Nc2ccc(OCCN3CCCC3)cc2)nc1Nc1cccc(S(=O)(=O)NC(C)(C)C)c1 [TG101348, N-tert-butyl-3-[(5-methyl-2-{[4-(2-pyrrolidin-1-ylethoxy)phenyl]amino}pyrimidin-4-yl)amino]benzenesulfonamide dihydrochloride monohydrate]
[1]; 360 mg/day, Cycle 1 Day 28
  plasma concentration over at least 24 hours after the dose: above IC90
[1]; 520 mg/day, Cycle 1 Day 28
  plasma concentration over at least 24 hours after the dose: above 3×IC90
[1]; in vivo
  increase of mean steady-state AUC0-t over a 27-fold increase in dose: ~88 fold
  increase of mean steady-state C. over a 27-fold increase in dose: approximately 54 fold
[1]; mean, 30 mg/day (n=3), Cycle 1 Day 28
  λz (elimination rate constant): 0.0354 h⁻¹
[1]; mean, 60 mg/day (n=3), Cycle 1 Day 28
  λz (elimination rate constant): 0.0456 h⁻¹
[1]; mean, 120 mg/day (n=3), Cycle 1 Day 28
  λz (elimination rate constant): 0.0305 h⁻¹
[1]; [3]
  T1/2 (terminal half-life): 20.77 h
  λz (elimination rate constant): 0.0352 h⁻¹
[1]; [4]
  Cmax: 1717.33 ng/mL
  T1/2 (terminal half-life): 21.39 h
  λz (elimination rate constant): 0.0353 h⁻¹
[1]; mean, 520 mg/day (n=3), Cycle 1 Day 28
  λz (elimination rate constant): 0.0343 h⁻¹
[1]; mean, 680 mg/day (n=27), Cycle 1 Day 28
  λz (elimination rate constant): 0.0301 h⁻¹
[1]; [5]
  T1/2 (terminal half-life): 23.99 h
  λz (elimination rate constant): 0.0331 h⁻¹
Subjects with MF; 21 patients with leukocytosis at baseline who started at ≥680 mg
  normal WBC count at last follow-up visit: 70%
Subjects with MF; Example 2 conclusions
  complete response in splenomegaly: ~30%
  proportion achieving ≥50% reduction in palpable splenomegaly: two-thirds
Subjects with MF; JAK2V617F-negative MF, 4 subjects who completed 6 cycles
  subjects achieving CI: 75%
Subjects with MF; MTD cohort, after 1 cycle
  night sweats: complete resolution: 64 % of subjects
Subjects with MF; [6]
  cough: complete resolution: 67%
  cough: improvement: 75%
Subjects with MF; [7]
  pruritus: complete resolution: 50%
  pruritus: improvement: 75%
Subjects with MF; MTD cohort, after 2 cycles (n=27)
  early satiety: complete resolution: 56%
Subjects with MF; MTD cohort, after 6 cycles (n=9)
  night sweats: complete resolution: 89%
Subjects with MF; [8]
  fatigue: complete resolution: 25%
  fatigue: improvement: 63%
Subjects with MF; all subjects
  subjects with disease progression: Three
Subjects with MF; [9]
  reduction in palpable spleen size at least 50%: 22 (67%) patients (%)
  spleen became non-palpable: 9 (27%) patients (%)
Subjects with MF; baseline WBC count >11×10^9/L, follow-up doses 360 to 680 mg/day
  normal WBC counts at follow-up visit: 73 % of subjects
Subjects with MF; baseline leukocytosis (WBC >11×10^9/L), across doses (16 of 28)
  subjects achieving a normal WBC count: 57%
Subjects with MF; baseline leukocytosis, MTD cohort (13 of 18)
  subjects achieving a normal WBC count: 72%
Subjects with MF; baseline platelet count >450×10^9/L
  effect on thrombocytosis: able to reduce platelet counts
Subjects with MF; baseline thrombocytosis (platelet count >450×10^9/L), across doses (10 subjects)
  subjects achieving a normal platelet count: 90%
Subjects with MF; baseline thrombocytosis, MTD cohort (7 subjects)
  subjects achieving a normal platelet count: 100%
Subjects with MF; by cycle 6, MTD cohort
  ≥50% decrease in palpable spleen size persistent for at least 8 weeks (Clinical Improvement per IWG-MRT): 45 % of subjects
  subjects with minimum 25% decrease in palpable spleen size: 65%
Subjects with MF; by cycle 6, overall
  ≥50% decrease in palpable spleen size persistent for at least 8 weeks (Clinical Improvement per IWG-MRT): 39 % of subjects
  subjects with minimum 25% decrease in palpable spleen size: 61%
Subjects with MF; by cycle 12, MTD cohort
  spleen responses (CI): 50 % of subjects
Subjects with MF; by cycle 12, overall
  spleen responses (CI): 48 % of subjects
Subjects with MF; evaluable subjects, baseline versus last visit, dihydrochloride monohydrate
  effect on constitutional symptoms (early satiety, fatigue, cough, pruritus, night sweats): clinically significant benefit or resolution; also recorded: able to improve; also recorded: remarkable activity
Subjects with MF; one subject with JAK2V617F-positive PMF, started at 680 mg/day
  pruritus: complete resolution
Subjects with MF; person, V617F negative PMF, baseline 3+, starting dose 240 mg/day, follow-up 440 mg/day
  bone marrow fibrosis after 18 cycles: 0
Subjects with MF; person, V617F negative PMF, baseline 60%, starting dose 30 mg/day, follow-up 520 mg/day
  bone marrow cellularity after 18 cycles: 5-10%
[2]
  effect on cytokine levels (IL-6, IL-8, IL-2, TNF-α): no significant changes; also recorded: minimal effect; also recorded: no consistent changes
